Laboratory results as given in PubChem BioAssay AID256 (DTP/NCI, 2004).
“And” between values parts separate entries of the source, which are not always exact repeats. Equal values may be shown once. Toxic doses and inconclusive results are not listed. The calls were made as follows: active = survival T/C of 150% or more; inactive = T/C below 125% in these data.

Test system: CD2F1 mice, L1210 leukemia ip, survival T/C
Experiment: NCI In Vivo Anticancer Drug Screen. Data for tumor model L1210 Leukemia (intraperitoneal) in CD2F1 (CDF1) mice
Conditions: endpoint: mean survival time, higher = longer survival
Procedure, shortened: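 Each value reflects a quotient of treated over vehicle control outcomes in mice with a transplanted tumor.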

[1] = dose: 100.0 mg/kg/injection, schedule: Q01DX009 (ip), vehicle: saline with Tween-80
[2] = dose: 200.0 mg/kg/injection, schedule: Q01DX009 (ip), vehicle: saline with Tween-80
[3] = dose: 400.0 mg/kg/injection, schedule: Q01DX009 (ip), vehicle: saline with Tween-80
[4] = dose: 100.0 mg/kg/injection, schedule: Q04DX003 (ip), vehicle: saline with Tween-80
[5] = dose: 200.0 mg/kg/injection, schedule: Q04DX003 (ip), vehicle: saline with Tween-80
[6] = dose: 400.0 mg/kg/injection, schedule: Q04DX003 (ip), vehicle: saline with Tween-80
[7] = dose: 50.0 mg/kg/injection, schedule: Q01DX009 (ip), vehicle: saline with Tween-80

Measured: T/C

CCOC(=O)/C(C#N)=C/NC(N)=O
inactive: dose: 50.0 mg/kg/injection, schedule: Q01DX001 (ip), vehicle: Klucel (hydroxypropylcellulose) (HPC) 100 % of control | dose: 100.0 mg/kg/injection, schedule: Q01DX001 (ip), vehicle: Klucel (hydroxypropylcellulose) (HPC) 91 % of control and 92 % of control | dose: 200.0 mg/kg/injection, schedule: Q01DX001 (ip), vehicle: Klucel (hydroxypropylcellulose) (HPC) 103 % of control | dose: 400.0 mg/kg/injection, schedule: Q01DX001 (ip), vehicle: Klucel (hydroxypropylcellulose) (HPC) 88 % of control

N#CC(=C1SCS1)[N+](=O)[O-]
inactive: dose: 0.37 mg/kg/injection, schedule: Q01DX009 (ip), vehicle: saline with Tween-80 101 % of control and 102 % of control | dose: 0.75 mg/kg/injection, schedule: Q01DX009 (ip), vehicle: saline with Tween-80 101 % of control | dose: 1.5 mg/kg/injection, schedule: Q01DX009 (ip), vehicle: saline with Tween-80 100 % of control and 102 % of control | dose: 3.0 mg/kg/injection, schedule: Q01DX009 (ip), vehicle: saline with Tween-80 102 % of control and 104 % of control | dose: 6.0 mg/kg/injection, schedule: Q01DX009 (ip), vehicle: saline with Tween-80 108 % of control | dose: 12.0 mg/kg/injection, schedule: Q01DX009 (ip), vehicle: saline with Tween-80 106 % of control

CCN(CC)Cc1cc(Nc2ncnc3oc(C)c(C)c23)ccc1O
inactive: dose: 100.0 mg/kg/injection, schedule: Q01DX001 (ip), vehicle: saline with Tween-80 100 % of control | [1] 102 % of control | dose: 200.0 mg/kg/injection, schedule: Q01DX001 (ip), vehicle: saline with Tween-80 95 % of control | [2] 96 % of control | dose: 400.0 mg/kg/injection, schedule: Q01DX001 (ip), vehicle: saline with Tween-80 95 % of control | [3] 100 % of control

Cc1ccc(C2=C(Cl)C(=O)C(c3ccc(C)cc3)=C(Cl)C2=O)cc1
inactive: dose: 75.0 mg/kg/injection, schedule: Q01DX001 (ip), vehicle: other 92 % of control | dose: 150.0 mg/kg/injection, schedule: Q01DX001 (ip), vehicle: other 92 % of control | dose: 300.0 mg/kg/injection, schedule: Q01DX001 (ip), vehicle: other 94 % of control

N#CCS(=O)(=O)c1ccccc1
inactive: dose: 12.5 mg/kg/injection, schedule: Q01DX001 (ip), vehicle: saline with Tween-80 95 % of control | dose: 25.0 mg/kg/injection, schedule: Q01DX001 (ip), vehicle: saline with Tween-80 98 % of control | dose: 50.0 mg/kg/injection, schedule: Q01DX001 (ip), vehicle: saline with Tween-80 96 % of control and 98 % of control

Nc1ccccc1-c1ccc([N+](=O)[O-])cc1
inactive: [4] 94 % of control | [5] 92 % of control | [6] 101 % of control

CCOC(=O)n1cnc2ncnc(SC)c21
inactive: dose: 50.0 mg/kg/injection, schedule: Q01DX001 (ip), vehicle: other 95 % of control | dose: 50.0 mg/kg/injection, schedule: Q01DX009 (ip), vehicle: other 102 % of control | [7] 109 % of control | dose: 100.0 mg/kg/injection, schedule: Q01DX001 (ip), vehicle: other 106 % of control | dose: 100.0 mg/kg/injection, schedule: Q01DX009 (ip), vehicle: other 102 % of control | [1] 101 % of control | dose: 200.0 mg/kg/injection, schedule: Q01DX001 (ip), vehicle: other 102 % of control | dose: 200.0 mg/kg/injection, schedule: Q01DX009 (ip), vehicle: other 123 % of control | [2] 91 % of control | dose: 400.0 mg/kg/injection, schedule: Q01DX001 (ip), vehicle: other 108 % of control | dose: 400.0 mg/kg/injection, schedule: Q01DX009 (ip), vehicle: other 121 % of control

CC(=O)OC1CCC2(C)C(CC=C3C2CCC2(C)C3CCC2C(C)CCCC(C)C)C1 (configuration not stated)
inactive: [1] 89 % of control | [2] 89 % of control | [3] 91 % of control

O=C(NCCCl)NC1CCSc2ccccc21 (configuration not stated)
inactive: [7] 95 % of control | [1] 91 % of control | [2] 91 % of control

Cc1ccc(S(=O)(=O)N(C)C)cc1NC1=NCCO1
inactive: dose: 50.0 mg/kg/injection, schedule: Q04DX003 (ip), vehicle: saline with Tween-80 95 % of control | [4] 95 % of control | [5] 90 % of control | [6] 90 % of control

CC#CC(=O)O
inactive: dose: 100.0 mg/kg/injection, schedule: Q04DX002 (ip), vehicle: saline 98 % of control
